In this test the target is human APJ receptor (Homo sapiens (Human), UniProt P35414). The test is described as follows: biochemical. The class given is biochemical. The following applies: [35S]GTPγS binding, CHO membranes expressing human APJ receptor; read-out: Activity hAPJ SPA EC50 IP. A digest of the protocol:
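Membranes of a stable CHO line carrying human APJ (pFLAG-CMV-3) were used in a GTPγS binding format; buffer GDP, MgCl2 and NaCl were optimized, and plates were read after 90 min at RT.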
(In general: Binding of GTPγS marks nucleotide exchange on a G protein.)

Some results are limits rather than exact numbers.

Chain of human APJ receptor (P35414 whole entry): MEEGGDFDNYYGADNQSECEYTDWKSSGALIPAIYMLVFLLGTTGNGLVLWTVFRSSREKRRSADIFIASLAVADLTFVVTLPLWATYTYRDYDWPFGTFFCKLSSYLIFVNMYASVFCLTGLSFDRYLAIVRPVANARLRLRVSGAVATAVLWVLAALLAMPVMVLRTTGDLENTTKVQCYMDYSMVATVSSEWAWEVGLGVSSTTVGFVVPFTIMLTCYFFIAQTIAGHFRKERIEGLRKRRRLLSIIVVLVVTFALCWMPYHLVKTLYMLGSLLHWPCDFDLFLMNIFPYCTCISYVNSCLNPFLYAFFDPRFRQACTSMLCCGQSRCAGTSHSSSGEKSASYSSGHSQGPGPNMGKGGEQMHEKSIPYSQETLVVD

One may read the EC50 as the concentration at which the effect is half-maximal. For `COc1ccc(N2CCC2=O)cc1-n1c(NS(=O)(=O)CCc2ccc(F)cc2Br)nnc1-c1cccs1` [Example 131.0, 2-(2-Bromo-4-fluorophenyl)-N-(4-(2-methoxy-5-(2-oxoazetidin-1-yl)phenyl)-5-(thiophen-2-yl)-4H-1,2,4-triazol-3-yl)ethanesulfonamide], the concentration for a half-maximal effect (EC50) is 4.1 nM.

For the compound `COc1ccc(N2CCC2=O)cc1-n1c(NS(=O)(=O)CCc2ccc(F)cc2C#N)nnc1-c1cccs1` [Example 132.0, 2-(2-Cyano-4-fluorophenyl)-N-(4-(2-methoxy-5-(2-oxoazetidin-1-yl)phenyl)-5-(thiophen-2-yl)-4H-1,2,4-triazol-3-yl)ethanesulfonamide], the EC50 was 0.24 nM.

As to `COc1ccc(Br)cc1-n1c(NS(=O)(=O)CCc2ccc(Cl)cc2)nnc1-c1cccs1` [Example 133.0, N-(4-(5-Bromo-2-methoxyphenyl)-5-(thiophen-2-yl)-4H-1,2,4-triazol-3-yl)-2-(4-chlorophenyl)ethanesulfonamide], the EC50 is 363 nM.

For `CCn1ccc(-c2nnc(NS(=O)(=O)[C@@H](C)[C@H](OC)c3ncc(F)cn3)n2-c2c(OC)cccc2OC)n1` [Example 134.0, (1R,2S)-N-(4-(2,6-Dimethoxyphenyl)-5-(1-ethyl-1H-pyrazol-3-yl)-4H-1,2,4-triazol-3-yl)-1-(5-fluoro-2-pyrimidinyl)-1-methoxy-2-propanesulfonamide], the EC50 came out at 1.2 nM.

Regarding `CCO[C@H](c1ncc(F)cn1)[C@H](C)S(=O)(=O)Nc1nnc(-c2ccn(C)n2)n1-c1c(OC)cccc1OC` [Example 135.0, (1R,2S)-N-(4-(2,6-Dimethoxyphenyl)-5-(1-methyl-1H-pyrazol-3-yl)-4H-1,2,4-triazol-3-yl)-1-ethoxy-1-(5-fluoro-2-pyrimidinyl)-2-propanesulfonamide], the concentration giving a half-maximal response (EC50) was 0.88 nM.

Regarding `COc1cccc(OC)c1-n1c(NS(=O)(=O)CCc2ccc(Cl)cc2)nnc1-c1nccs1` [Example 136.0, 2-(4-chlorophenyl)-N-(4-(2,6-dimethoxyphenyl)-5-(thiazol-2-yl)-4H-1,2,4-triazol-3-yl)ethanesulfonamide], the EC50 worked out at 35 nM.

On to `COc1cccc(OC)c1-n1c(NS(=O)(=O)CCc2ccc(Cl)cc2)nnc1-c1cncs1` [Example 137.0, 2-(4-chlorophenyl)-N-(4-(2,6-dimethoxyphenyl)-5-(thiazol-5-yl)-4H-1,2,4-triazol-3-yl)ethanesulfonamide], for which the EC50 stood at 30 nM.

Regarding `COc1cccc(OC)c1-n1c(NS(=O)(=O)CCc2ccc(Cl)cc2)nnc1-c1cnco1` [Example 138.0, 2-(4-chlorophenyl)-N-(4-(2,6-dimethoxyphenyl)-5-(oxazol-5-yl)-4H-1,2,4-triazol-3-yl)ethanesulfonamide], the EC50 worked out at 586 nM.

Consider `COc1cccc(OC)c1-n1c(NS(=O)(=O)CCc2ccc(Cl)cc2)nnc1-c1cocn1` [Example 139.0, 2-(4-chlorophenyl)-N-(4-(2,6-dimethoxyphenyl)-5-(oxazol-4-yl)-4H-1,2,4-triazol-3-yl)ethanesulfonamide], for which the EC50 turned out to be 118 nM.

Regarding `COc1cccc(OC)c1-n1c(NS(=O)(=O)CCc2ccc(F)cc2Br)nnc1-c1nccs1` [Example 140.0, 2-(2-bromo-4-fluorophenyl)-N-(4-(2,6-dimethoxyphenyl)-5-(thiazol-2-yl)-4H-1,2,4-triazol-3-yl)ethanesulfonamide], the EC50 stood at 24.5 nM.

Take `COc1cccc(OC)c1-n1c(NS(=O)(=O)CCc2ccc(Cl)cc2)nnc1-c1ccsc1` [Example 141.0, 2-(4-chlorophenyl)-N-(4-(2,6-dimethoxyphenyl)-5-(thiophen-3-yl)-4H-1,2,4-triazol-3-yl)ethanesulfonamide]: the EC50 was determined as 9.4 nM.

Consider `COc1cccc(OC)c1-n1c(NS(=O)(=O)CCc2ccc(Cl)cc2)nnc1-c1nc(C)cs1` [Example 142.0, 2-(4-chlorophenyl)-N-(4-(2,6-dimethoxyphenyl)-5-(4-methylthiazol-2-yl)-4H-1,2,4-triazol-3-yl)ethanesulfonamide], for which the EC50 is 17 nM.

For the compound `COc1cccc(OC)c1-n1c(NS(=O)(=O)CCc2ccc(Cl)cc2)nnc1-c1ncc(C)s1` [Example 143.0, 2-(4-chlorophenyl)-N-(4-(2,6-dimethoxyphenyl)-5-(5-methylthiazol-2-yl)-4H-1,2,4-triazol-3-yl)ethanesulfonamide], the concentration for a half-maximal effect (EC50) was 236 nM.

Regarding `COc1cccc(OC)c1-n1c(NS(=O)(=O)CCc2ccc(Cl)cc2)nnc1-c1ncc(Cl)s1` [Example 144.0, 2-(4-chlorophenyl)-N-(5-(5-chlorothiazol-2-yl)-4-(2,6-dimethoxyphenyl)-4H-1,2,4-triazol-3-yl)ethanesulfonamide], the EC50 worked out at 330 nM.

Turning to `COc1cccc(OC)c1-n1c(NS(=O)(=O)CCc2ccc(Cl)cc2)nnc1-c1cc(C)on1` [Example 145.0, 2-(4-chlorophenyl)-N-(4-(2,6-dimethoxyphenyl)-5-(5-methylisoxazol-3-yl)-4H-1,2,4-triazol-3-yl)ethanesulfonamide], the EC50 was 71 nM.

`COCc1nc(-c2nnc(NS(=O)(=O)CCc3ccc(Cl)cc3)n2-c2c(OC)cccc2OC)cs1` [Example 146.0]: the EC50 is 97 nM.

`COc1cccc(OC)c1-n1c(NS(=O)(=O)CCc2ccc(F)cc2C#N)nnc1-c1nc(C)cs1` [Example 147.0, 2-(2-Cyano-4-fluorophenyl)-N-(4-(2,6-dimethoxyphenyl)-5-(4-methylthiazol-2-yl)-4H-1,2,4-triazol-3-yl)ethanesulfonamide]: the 50% effective concentration (EC50) is 1.3 nM.

Consider `COc1cccc(OC)c1-n1c(NS(=O)(=O)CCc2ccc(F)cc2C#N)nnc1-c1csc(C)n1` [Example 148.0, 2-(2-cyano-4-fluorophenyl)-N-(4-(2,6-dimethoxyphenyl)-5-(2-methylthiazol-4-yl)-4H-1,2,4-triazol-3-yl)ethanesulfonamide], for which the EC50 was found to be 31 nM.

Regarding `COc1cccc(OC)c1-n1c(NS(=O)(=O)CCc2ccc(Cl)cc2)nnc1-c1csc(C)n1` [Example 149.0, 2-(4-chlorophenyl)-N-(4-(2,6-dimethoxyphenyl)-5-(2-methylthiazol-4-yl)-4H-1,2,4-triazol-3-yl)ethanesulfonamide], the EC50 came to 27 nM.

As to `COc1cccc(OC)c1-n1c(NS(=O)(=O)CCc2ccc(F)cc2C#N)nnc1-c1nc(C(C)C)cs1` [Example 151.0, 2-(2-cyano-4-fluorophenyl)-N-(4-(2,6-dimethoxyphenyl)-5-(4-isopropylthiazol-2-yl)-4H-1,2,4-triazol-3-yl)ethanesulfonamide], the EC50 amounted to 31 nM.

Turning to `CCc1csc(-c2nnc(NS(=O)(=O)CCc3ccc(Cl)cc3)n2-c2c(OC)cccc2OC)n1` [Example 152.0, 2-(4-chlorophenyl)-N-(4-(2,6-dimethoxyphenyl)-5-(4-ethylthiazol-2-yl)-4H-1,2,4-triazol-3-yl)ethanesulfonamide], the EC50 was above 12500 nM.

For `CCc1csc(-c2nnc(NS(=O)(=O)CCc3ccc(F)cc3C#N)n2-c2c(OC)cccc2OC)n1` [Example 153.0, 2-(2-cyano-4-fluorophenyl)-N-(4-(2,6-dimethoxyphenyl)-5-(4-ethylthiazol-2-yl)-4H-1,2,4-triazol-3-yl)ethanesulfonamide], the EC50 amounted to 11 nM.

On to `CCc1nc(-c2nnc(NS(=O)(=O)CCc3ccc(F)cc3C#N)n2-c2c(OC)cccc2OC)cs1` [Example 154.0, 2-(2-cyano-4-fluorophenyl)-N-(4-(2,6-dimethoxyphenyl)-5-(2-ethylthiazol-4-yl)-4H-1,2,4-triazol-3-yl)ethanesulfonamide], for which the EC50 came out at 62 nM.
